The values that follow come from patent US20050004038A1, “Bivalent inhibitors of Glutathione-S-Transferases” (priority 2003, published 2005).

In one assay the target is T1, murine GSTP (Mus musculus, UniProt P19157).
T1 construct: gift from Dr. Dave Eaton (University of Washington)
Put plainly: CDNB assay, murine GSTP. In kind it is biochemical. As to the method:
(§1) GST isozymes. […] The enzyme was incubated with 10 mM dithiothreitol to ensure complete reduction of cysteine residues, followed by extensive dialysis to remove the reducing agent. […] Plasmodium GST (pGST) was a gift from Dr. Katja Becker (Justus Liebig University of Giessen), and murine GSTP and GSTA were gifts from Dr. Dave Eaton (University of Washington). Except where otherwise stated (i.e. testing of pGST in Example 6.4.5 and testing of murine GSTs in Example 6.4.7), GST isozymes tested were from human.
(§2) GST assays. Assays of GST activity and inhibition were performed with chloro-2,4-dinitrobenzene (CDNB) as the electrophilic substrate. Except where otherwise stated, GST concentration was 20 nM. […] Rates were determined by measuring absorption at 340 nm (λmax of glutathione-dinitrobenzene) for 1 minute on a Beckman DU 7400 spectrophotometer. For IC50 determinations, assays were performed at inhibitor concentrations ranging over at least […] (from 100-fold above the IC50 to 100-fold below). Data were fit to a sigmoidal dose-response function using GraphPad Prism to determine the 50% inhibitory concentration.

The target of assay [1] is T2, human glutathione S-transferase A1-1 (GSTA1-1) (Homo sapiens, UniProt P08263).
T2 construct: made in house; host or cells: E. coli
T2 sequence (P08263 1-222): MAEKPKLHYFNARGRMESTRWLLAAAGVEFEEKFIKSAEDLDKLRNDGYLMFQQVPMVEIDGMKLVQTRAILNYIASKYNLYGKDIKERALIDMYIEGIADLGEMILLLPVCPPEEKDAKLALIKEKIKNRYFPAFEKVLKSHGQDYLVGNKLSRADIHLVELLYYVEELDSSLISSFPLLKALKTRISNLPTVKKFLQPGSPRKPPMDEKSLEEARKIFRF
Put plainly: CDNB assay of GST activity and inhibition, GST A1-1. The conditions noted are these: second value of the cell GSTP1-1/GSTA1-1, 20 nM GST. The format is biochemical. Here is the method:
as §1, §2

The target in assay [2] is T3, human glutathione S-transferase P1-1 (GSTP1-1) (Homo sapiens, UniProt P09211).
T3 construct: made in house; host or cells: E. coli
Put plainly: CDNB assay of GST activity and inhibition, GST P1-1. The format is biochemical. The conditions noted are these: first value of the cell GSTP1-1/GSTA1-1; CDNB assay, 20 nM GST. Here is the method: as §1, §2

The next assay has as its target T4, GSTA1-1 (Homo sapiens, UniProt P08263).
T4 construct: made in house; host or cells: E. coli
T4 sequence (P08263 1-222): T2 sequence (P08263 1-222)
Put plainly: GSH conjugation assay, absorbance changes at 270 nm, GSTA1-1. The conditions noted are these: absorbance at 270 nm. The format is biochemical. The source says:
(§3) Since EA is known to be enzymatically conjugated to GSH by GSTs, these bivalent inhibitors might be predicted to be potential substrates for GSTA1-1 or GSTP1-1, such that they would also be catalytically conjugated with GSH.

In the next assay the target is T5, GSTP1-1 (Homo sapiens, UniProt P09211).
T5 construct: made in house; host or cells: E. coli
Put plainly: GSH conjugation assay, absorbance changes at 270 nm, GSTP1-1. The format is biochemical. The conditions noted are these: absorbance at 270 nm.
Text: as §3

Another assay concerns the target T6, Plasmodium GST (pGST) (Plasmodium falciparum, UniProt Q8ILQ7).
T6 construct: gift from Dr. Katja Becker (Justus Liebig University of Giessen)
T6 sequence (Q8ILQ7 1-211): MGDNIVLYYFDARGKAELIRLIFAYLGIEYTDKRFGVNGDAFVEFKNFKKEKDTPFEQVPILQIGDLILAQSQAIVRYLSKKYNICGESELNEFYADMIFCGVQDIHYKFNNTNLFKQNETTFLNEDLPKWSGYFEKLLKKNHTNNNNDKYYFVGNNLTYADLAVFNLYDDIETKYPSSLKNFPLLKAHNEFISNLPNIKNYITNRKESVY
Put plainly: CDNB assay, Plasmodium GST. In kind it is biochemical. Here is the method: as §1, §2
The IC50 values for pGST were determined for the bivalent compounds from Tables III and IV using the CDNB assay.

In assay [3] the test system is human kidney 293 fibroblasts transfected with the IRES vector (no GST P1-1). Put plainly: Cell killing by hypericin photodynamic treatment, IRES vector control cells. In kind it is cell-based. Here is the method: (§4) Cells used in the assay were human kidney 293 fibroblasts transfected with the IRES vector plus and minus the coding region for human GST P1-1. Cells were cultured in DMEM supplemented with 10% FBS and 1% penicillin-streptomycin and maintained at 37° C. and 5% CO2.
(§5) Once the cells reached 80% confluency, the original media was removed and replaced with either (a) fresh media alone; (b) fresh media containing 1 uM hypericin (a porphyrin analogue employed in photodynamic cancer therapy), (c) the desired concentration of GST inhibitor IVg^, and (d) 1 μM hypericin plus the inhibitor 1 μM IVg^. The cells were incubated for a further 24 hours, in the dark, to allow the hypericin to be incorporated. The media from each plate was then removed and placed into a corresponding 15 ml centrifuge tube. This media is saved to monitor the “floater” cells that may have sloughed off during manipulations and treatment. The attached cells were washed two times with 1×PBS and fresh media is added back to the plates. The plates which were incubated overnight in the presence of hypericin were overlayed with DMEM without the phenol red indicator dye or 1×PBS supplemented with 10% FBS. […]
(§6) Following light treatment, cells were trypsinized, removed to their corresponding 15 ml tubes and maintained on ice until analyzed via flow cytometry.

The test system of assay [4] is human kidney 293 fibroblasts. Put plainly: IC50 of the bivalent inhibitor alone in the cell line. In kind it is cell-based. The conditions noted are these: +/−0.2 SD, read-out: IC50 of inhibitor for the cells. Here is the method: as §4
Once the cells reached 80% confluency, the original media was removed and replaced with either (a) fresh media alone; (b) fresh media containing 1 uM hypericin (a porphyrin analogue employed in photodynamic cancer therapy), (c) the desired concentration of GST inhibitor IVg^, and (d) 1 μM hypericin plus the inhibitor 1 μM IVg^. The cells were incubated for a further 24 hours, in the dark, to allow the hypericin to be incorporated. The media from each plate was then removed and placed into a corresponding 15 ml centrifuge tube. This media is saved to monitor the “floater” cells that may have sloughed off during manipulations and treatment. The attached cells were washed two times with 1×PBS and fresh media is added back to the plates. The plates which were incubated overnight in the presence of hypericin were overlayed with DMEM without the phenol red indicator dye or 1×PBS supplemented with 10% FBS.
as §6

Assay [5] concerns human kidney 293 fibroblasts overexpressing human GST P1-1. Put plainly: Cell killing by hypericin photodynamic treatment, GST P1-1 overexpressing cells. The format is cell-based. The settings on record: GSTP cells. As to the method: as §4, §5, §6
The subject of assay [6] is chloroquine resistant Plasmodium falciparum strain Dd2. Put plainly: Parasite growth inhibition, ring stages, 48 hours. In kind it is cell-based. The conditions noted are these: single dose, strain Dd2, 48 hours. Here is the method: (§7) A single dose of compound IVg^ was added to ring stages of chloroquine resistant Plasmodium falciparum strain Dd2 and incubated for 48 hours. […] An isobologram analysis was performed in two different chloroquine resistant parasites comparing IVg^ with chloroquine (AN143 with a PNG/South America genotype and INDO21 with the Indonesia genotype).

The test system of assay [7] is chloroquine resistant parasites AN143 and INDO21. Put plainly: Isobologram analysis with chloroquine. In kind it is cell-based, Plasmodium falciparum. Here is the method:
as §7

Assay [8] deals with T2, human glutathione S-transferase A1-1 (GSTA1-1). The settings on record: from the prior art (Ploemen et al.); cited from earlier work.
Setting [9] is: CDNB assay, read-out: IC50 pGST.
Where [10] appears, read: 1 μM inhibitor + 1 μM hypericin + 590 nm light.
Setting [11] is: 1 uM hypericin + 590 nm light, no inhibitor.

Read-outs that look alike come from different tables or passages of the source. Where only a bound is given, the exact number is not on record here.

T3 sequence (P09211 2-210 limits assumed): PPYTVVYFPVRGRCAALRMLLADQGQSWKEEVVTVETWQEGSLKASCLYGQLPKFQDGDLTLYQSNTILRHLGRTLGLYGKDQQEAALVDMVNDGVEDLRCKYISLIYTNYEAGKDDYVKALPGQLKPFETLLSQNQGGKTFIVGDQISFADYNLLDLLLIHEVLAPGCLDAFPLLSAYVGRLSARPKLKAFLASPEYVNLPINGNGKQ
T1 sequence (P19157 2-210 limits assumed): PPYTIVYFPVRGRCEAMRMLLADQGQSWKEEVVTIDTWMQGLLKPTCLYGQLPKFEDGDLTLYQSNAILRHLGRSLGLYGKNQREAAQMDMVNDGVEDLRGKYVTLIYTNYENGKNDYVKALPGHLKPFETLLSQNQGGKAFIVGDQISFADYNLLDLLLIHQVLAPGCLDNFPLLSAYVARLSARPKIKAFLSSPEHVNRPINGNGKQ
T5 sequence (P09211 2-210 limits assumed): as the sequence (P09211 2-210 limits assumed) above

Turning to `C=C(CC)C(=O)c1ccc(OCC(=O)NCc2cccc(CNC(=O)COc3ccc(C(=O)C(=C)CC)c(Cl)c3Cl)c2)c(Cl)c1Cl` [IVc^], the IC50 stood at 990 nM against murine GSTP, 25 nM in assay [1] and 995 nM in [2].

`C=C(CC)C(=O)c1ccc(OCC(=O)NCCCCCC(=O)NCc2cc(CNC(=O)CCCCCNC(=O)COc3ccc(C(=O)C(=C)CC)c(Cl)c3Cl)cc(C(N)=O)c2)c(Cl)c1Cl` [IVg]: at GSTA1-1, the “GSH conjugation by GSTA1-1” value was “no GSH conjugation”. The “GSH conjugation by GSTP1-1” value on GSTP1-1 is listed as “no GSH conjugation”. The concentration for half-maximal inhibition (IC50) in assay [1] is 40.2 nM; in assay [2], 46.1 nM; at Plasmodium GST (pGST) (setting [9]), around 3300 nM.

For the compound `C=C(CC)C(=O)c1ccc(OCC(=O)NCCCCCC(=O)NCc2cccc(CNC(=O)CCCCCNC(=O)COc3ccc(C(=O)C(=C)CC)c(Cl)c3Cl)c2)c(Cl)c1Cl` [IVg^], the “Mean % Cell Death” value in assay [3] (setting [10]) was 20.27%; in assay [5] (setting [10]), 22.53%. In addition, the IC50 was 1130 nM in [4]; 18 nM against murine GSTP; 64 nM in assay [1]; 27 nM in [2]; around 1500 nM at Plasmodium GST (pGST) (setting [9]). In assay [6], this compound gave an EC50 of 412 nM. For the same compound, in assay [7], the synergy with chloroquine entry is given as “No evidence of synergy”.

Consider `C=C(CC)C(=O)c1ccc(OCC(=O)NCCCC(=O)NCCCC(=O)NCCCC(=O)NCc2cc(CNC(=O)CCCNC(=O)CCCNC(=O)CCCNC(=O)COc3ccc(C(=O)C(=C)CC)c(Cl)c3Cl)cc(C(N)=O)c2)c(Cl)c1Cl` [IVi], for which the IC50 in assay [1] was 96.5 nM; in assay [2] it was 142 nM; at Plasmodium GST (pGST), around 5500 nM.

With `C=C(CC)C(=O)c1ccc(OCC(=O)O)c(Cl)c1Cl` [IVk*, ethacrynic acid, reference compound], at GSTA1-1, the “GSH conjugation by GSTA1-1” value is “readily conjugated to GSH”. Moreover, in assay [8], the concentration for half-maximal inhibition (IC50) is 5000 nM.

Take `NC(=O)c1cc(CNC(=O)CCCNC(=O)CSCC(NC(=O)CCC(N)C(=O)O)C(=O)NCC(=O)O)cc(CNC(=O)CCCNC(=O)CSCC(NC(=O)CCC(N)C(=O)O)C(=O)NCC(=O)O)c1` (stereo not shown) [Ig]: the concentration for half-maximal inhibition (IC50) in assay [1] is above 10000 nM; in [2], 24800 nM.

On to `NC(=O)c1cccc(CNC(=O)CCCC(=O)NCSCC(NC(=O)CCC(N)C(=O)O)C(=O)NCC(=O)O)c1` (stereo not shown) [Ih*, reference compound], for which the concentration for half-maximal inhibition (IC50) in [1] is above 10000 nM; in assay [2], 39300 nM.

Regarding `Cc1cc(O)c2c(=O)c3c(O)cc(O)c4c5c(O)cc(O)c6c(=O)c7c(O)cc(C)c8c1c2c(c34)c(c78)c65` [hypericin, reference compound], the “Mean % Cell Death” value in assay [3] (setting [11]) came out at 24.63%; in assay [5] (setting [11]) it was 11.27%.
